Laboratory results: ChEMBL document CHEMBL1201862, “PubChem BioAssay data set” (2004)
Active and inactive are the calls of the source. Rule as the data show it, for most assays here: actives have a measured IC50 and inactives only a lower limit.

What was measured:
[1] = molecular target: 72 kDa type IV collagenase (Homo sapiens, UniProt P08253); assay: Dose Response validation of uHTS RPN11 inhibitor hits using a MMP-2 Fluorescence assay.; format: functional
[2] = Artemis endonuclease inhibitor potency, dose response, biochemical, fluorescence intensity (AID 720701); format: functional;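 also: Artemis endonuclease enzyme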
[3] = molecular target: T1, Tyrosyl-DNA phosphodiesterase 2 (Homo sapiens, UniProt O95551); assay: human TDP2 enzyme inhibitors, dose response, biochemical, epi absorbance, IC50 (AID 743297)
T1 sequence (O95551 whole entry): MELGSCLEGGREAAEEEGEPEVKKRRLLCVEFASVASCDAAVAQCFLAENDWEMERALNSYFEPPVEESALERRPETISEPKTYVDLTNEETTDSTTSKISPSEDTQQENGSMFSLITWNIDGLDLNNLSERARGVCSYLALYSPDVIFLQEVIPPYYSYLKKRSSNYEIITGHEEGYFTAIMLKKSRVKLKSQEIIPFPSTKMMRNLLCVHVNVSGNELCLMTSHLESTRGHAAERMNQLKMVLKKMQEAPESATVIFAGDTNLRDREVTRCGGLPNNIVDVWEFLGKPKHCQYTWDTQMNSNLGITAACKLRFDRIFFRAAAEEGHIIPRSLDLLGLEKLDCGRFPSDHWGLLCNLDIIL

[4] = molecular target: T2, Sentrin-specific protease 7 (Homo sapiens, UniProt Q9BQF6); format: functional;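 also: Luminescence-based dose-response confirmation of ultra-high-throughput screening hits, measuring inhibition of SENP7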
T2 sequence (Q9BQF6 whole entry): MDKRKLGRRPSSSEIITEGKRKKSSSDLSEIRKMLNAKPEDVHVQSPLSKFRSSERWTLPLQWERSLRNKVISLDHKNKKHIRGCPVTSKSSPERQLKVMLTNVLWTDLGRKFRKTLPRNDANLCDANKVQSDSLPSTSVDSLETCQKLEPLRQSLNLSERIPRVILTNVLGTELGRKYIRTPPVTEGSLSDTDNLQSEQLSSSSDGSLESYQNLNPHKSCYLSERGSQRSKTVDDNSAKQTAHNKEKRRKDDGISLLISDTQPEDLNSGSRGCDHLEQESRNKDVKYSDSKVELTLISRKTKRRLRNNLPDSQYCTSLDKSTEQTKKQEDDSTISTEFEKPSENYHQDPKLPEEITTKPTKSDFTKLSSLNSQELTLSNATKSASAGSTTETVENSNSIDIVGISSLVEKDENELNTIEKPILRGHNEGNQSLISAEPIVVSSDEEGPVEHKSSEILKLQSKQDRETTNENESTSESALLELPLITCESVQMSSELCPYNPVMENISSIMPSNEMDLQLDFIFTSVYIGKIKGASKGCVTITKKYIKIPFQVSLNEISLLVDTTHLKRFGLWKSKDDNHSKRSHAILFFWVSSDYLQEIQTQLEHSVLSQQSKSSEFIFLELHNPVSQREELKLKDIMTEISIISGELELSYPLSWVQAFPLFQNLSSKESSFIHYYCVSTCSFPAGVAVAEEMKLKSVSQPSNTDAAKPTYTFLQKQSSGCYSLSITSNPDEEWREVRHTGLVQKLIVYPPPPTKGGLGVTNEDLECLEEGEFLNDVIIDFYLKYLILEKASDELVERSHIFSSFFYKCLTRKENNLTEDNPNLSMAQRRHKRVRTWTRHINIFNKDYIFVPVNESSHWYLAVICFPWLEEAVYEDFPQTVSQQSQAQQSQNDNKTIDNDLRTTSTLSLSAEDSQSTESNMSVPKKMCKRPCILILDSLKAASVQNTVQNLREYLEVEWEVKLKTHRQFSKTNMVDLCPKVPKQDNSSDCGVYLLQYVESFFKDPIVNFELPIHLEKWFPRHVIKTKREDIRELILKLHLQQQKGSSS

[5] = molecular target: T3, Apoptotic protease-activating factor 1 (Homo sapiens, UniProt O14727); format: functional
T3 sequence (O14727 whole entry): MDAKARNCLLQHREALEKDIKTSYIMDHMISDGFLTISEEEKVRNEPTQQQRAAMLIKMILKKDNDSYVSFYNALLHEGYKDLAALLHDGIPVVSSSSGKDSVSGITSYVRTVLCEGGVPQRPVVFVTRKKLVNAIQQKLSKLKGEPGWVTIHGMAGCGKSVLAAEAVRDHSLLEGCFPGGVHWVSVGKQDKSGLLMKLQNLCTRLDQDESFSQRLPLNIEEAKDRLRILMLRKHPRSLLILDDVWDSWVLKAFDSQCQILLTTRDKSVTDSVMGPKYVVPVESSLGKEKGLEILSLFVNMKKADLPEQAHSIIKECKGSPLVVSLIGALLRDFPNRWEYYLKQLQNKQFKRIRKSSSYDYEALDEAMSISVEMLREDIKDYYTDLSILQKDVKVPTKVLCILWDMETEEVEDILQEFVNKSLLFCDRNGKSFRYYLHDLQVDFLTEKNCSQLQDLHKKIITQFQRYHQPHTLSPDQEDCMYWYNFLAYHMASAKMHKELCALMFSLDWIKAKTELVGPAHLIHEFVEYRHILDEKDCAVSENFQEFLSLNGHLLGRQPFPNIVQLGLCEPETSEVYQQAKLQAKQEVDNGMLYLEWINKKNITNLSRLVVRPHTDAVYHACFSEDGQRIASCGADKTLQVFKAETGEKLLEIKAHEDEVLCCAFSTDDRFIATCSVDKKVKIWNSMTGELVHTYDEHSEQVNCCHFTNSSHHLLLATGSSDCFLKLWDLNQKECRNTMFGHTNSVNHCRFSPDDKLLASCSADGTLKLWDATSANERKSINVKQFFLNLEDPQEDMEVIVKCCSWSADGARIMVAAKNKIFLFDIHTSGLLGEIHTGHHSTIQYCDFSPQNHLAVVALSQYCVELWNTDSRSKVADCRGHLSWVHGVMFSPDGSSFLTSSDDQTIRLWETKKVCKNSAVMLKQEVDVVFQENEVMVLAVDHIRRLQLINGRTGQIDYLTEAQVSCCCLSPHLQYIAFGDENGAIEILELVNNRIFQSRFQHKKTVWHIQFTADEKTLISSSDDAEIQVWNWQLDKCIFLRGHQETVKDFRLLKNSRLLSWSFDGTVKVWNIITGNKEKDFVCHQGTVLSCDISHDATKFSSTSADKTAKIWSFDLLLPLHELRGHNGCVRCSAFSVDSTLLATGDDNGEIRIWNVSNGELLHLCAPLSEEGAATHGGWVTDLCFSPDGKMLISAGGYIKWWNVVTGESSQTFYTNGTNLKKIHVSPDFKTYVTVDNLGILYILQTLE

[6] = molecular target: T4, Sentrin-specific protease 8 (Homo sapiens, UniProt Q96LD8); format: functional;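 also: luminescence read-out of SENP8 inhibition, dose-response confirmation following an ultra-high-throughput screen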
T4 sequence (Q96LD8 whole entry): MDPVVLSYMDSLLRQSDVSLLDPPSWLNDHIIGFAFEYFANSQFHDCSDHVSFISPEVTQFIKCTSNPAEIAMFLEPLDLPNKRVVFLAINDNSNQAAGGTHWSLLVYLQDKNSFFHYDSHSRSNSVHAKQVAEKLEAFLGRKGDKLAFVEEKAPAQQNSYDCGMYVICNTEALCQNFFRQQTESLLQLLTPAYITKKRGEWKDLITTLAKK

Measured: IC50

72 kDa type IV collagenase, sequence (P08253 whole entry): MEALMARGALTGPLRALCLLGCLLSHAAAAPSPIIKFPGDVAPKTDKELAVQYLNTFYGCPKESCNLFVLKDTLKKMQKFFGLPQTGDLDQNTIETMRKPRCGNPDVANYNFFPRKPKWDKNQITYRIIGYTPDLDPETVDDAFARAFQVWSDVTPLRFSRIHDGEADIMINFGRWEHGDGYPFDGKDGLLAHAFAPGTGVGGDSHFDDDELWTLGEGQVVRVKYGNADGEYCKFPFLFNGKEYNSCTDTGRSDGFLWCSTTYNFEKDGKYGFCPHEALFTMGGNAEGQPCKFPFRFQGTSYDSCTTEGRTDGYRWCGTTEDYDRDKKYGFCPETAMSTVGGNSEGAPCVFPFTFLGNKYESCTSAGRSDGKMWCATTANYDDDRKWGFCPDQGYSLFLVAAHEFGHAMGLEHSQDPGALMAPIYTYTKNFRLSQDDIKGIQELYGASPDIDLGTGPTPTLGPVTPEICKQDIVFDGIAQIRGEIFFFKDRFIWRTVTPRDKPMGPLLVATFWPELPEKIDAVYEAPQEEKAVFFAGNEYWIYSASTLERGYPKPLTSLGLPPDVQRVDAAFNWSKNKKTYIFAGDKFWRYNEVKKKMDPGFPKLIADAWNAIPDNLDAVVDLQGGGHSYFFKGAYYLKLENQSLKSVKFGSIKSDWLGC

O=[N+]([O-])c1ccc(N/N=C/c2ccc[nH]2)cc1
active: [1] 70.3 µM

CC(=O)N(/N=C1\Sc2ccccc2C1=O)c1cccc(C)c1
active: [2] 18.3 µM | [3] 6.48 µM | [4] 13.8 µM | [5] 4.46 µM | [6] 11.7 µM
